{"source": "patent US20090281036A1", "about": "“FUSION PEPTIDE FOR INHIBITING INTERACTION OF NEURONAL NMDA RECEPTOR (NMDAR) AND NMDAR INTERACTING PROTEINS” (priority 2006, published 2009)", "key": {"[1]": {"system": "Rat cortical neurons", "assay": "Duration of neuroprotection afforded by TAT-NR2B9c in the face of excitotoxic insults (NMDA-induced cell death, pyknotic nuclei as % of total)", "type": "cell-based", "conditions": "for significant protection (duration after washout): peptide 10 μM for 1 hr, then washout", "method": "Rat cortical neurons, taken from E21 rats, were cultured for 7-9 days in vitro in Neurobasal-A medium+B-27 supplement (both invitrogen), 1 mM glutamine, +50 units/ml penicillin, 50 μg/ml streptomycin. • 1. At varying times prior to compound exposure, neurons were removed from Neurobasal-A based culture medium, and placed into “transfection medium” (TM; Bading et al. (1993), Science 260, 181-186): 10% (Minimum Essential Medium, invitrogen (21090022), containing Earles salt, but no L-glutamine), 90% Salt-Glucose-Glycine (SGG) medium SGG: 114 mM NaCl, 0.219% NaHCO3, 5.292 mM KCl, 1 mM MgCl2, 2 mM CaCl2, 10 mM HEPES, 1 mM Glycine, 30 mM Glucose, 0.5 mM sodium pyruvate, 0.1% Phenol Red, insulintransferrin-selenite supplement (Sigma, 7.5 μg insulin/ml; 7.5 μg transferrin/ml and 7.5 ng sodium selenite/ml); final osmolarity 325 mosm/l). All subsequent steps took place in TM. • 2. Neurons were then exposed to inventive fusion peptides at 10 μM for 1 hr. (particularly TAT-NR2B9c peptides in L-form (L-TAT-L-NR2B9c sequence YGRKKRRQRRR-KLSSIESDV (SEQ ID NO: 32), identical to US 20030050243) and their D-form (D-TAT-D-NR2B9c, sequence vdseisslk-rrrqrrkkrgyin (SEQ ID NO: 33))) • 3. After 1 hr neurons were washed once in TM to remove peptide. • 4. After a varying period of time, neurons were exposed to NMDA at either 20 or 40 μM for 1 hr, after which neurons are placed in TM for 24 h. • 5. Neurons were fixed (3% paraformaldehyde) and stained (DAPI, 4′,6-Diamidino-2-phenylindole). Number of pyknotic nuclei as a % of total is counted. Experiments were performed in triplicate."}, "[2]": {"system": "Rat cortical neurons", "assay": "Duration of neuroprotection afforded by (Arg)8-NR2B9c in the face of excitotoxic insults (NMDA-induced cell death, pyknotic nuclei as % of total)", "type": "cell-based", "method": "Rat cortical neurons, taken from E21 rats, were cultured for 7-9 days in vitro in Neurobasal-A medium+B-27 supplement (both Invitrogen), 1 mM glutamine, +50 units/ml penicillin, 50 μg/ml streptomycin • 1. At varying times prior to peptide exposure, neurons were removed from Neurobasal-A based culture medium, and placed into TM (see above) with the inclusion of Insulin-transferrin-selenite supplement (Sigma). All subsequent steps took place in TM (see above). • 2. Neurons were then exposed to inventive fusion peptides at 10 μM for 1 hr. (particularly (Arg)8-NR2B9c peptides in D-form (D-TAT-D-NR2B9c, sequence vdseisslk-rrrrrrrr (SEQ ID NO: 35)) and also L-form (SEQ ID NO: 34)) • 3. After 1 hr neurons were washed once in TM to remove peptide. • 4. After a varying period of time, neurons were exposed to NMDA for 1 hr, after which neurons are placed in TM for 24 h. • 5. Neurons were fixed (3% paraformaldehyde) and stained (DAPI 4′,6-Diamidino-2-phenylindole). The number of pyknotic nuclei as a % of total was counted. Experiments were performed in triplicate."}}, "note": "Entries after “also recorded” stand apart in the source; their conditions may differ. Where no end group is shown, it is not given here. [ ]: non-standard residue; d: D form.", "data": [{"substance": "YGRKKRRQRRRKLSSIESDV (Description of sequence L-TAT-L-NR2B9c sequence) [comparative compound, identical to US 20030050243, reference compound]", "values": [{"measurement": "significant protection (duration after washout)", "setting": "[1]; 40 μM NMDA, FIG. 2", "value": 1, "unit": "h"}]}, {"substance": "vdseisslk-rrrqrrkkrgy ([dV][dD][dS][dE][dI][dS][dS][dL][dK][dR][dR][dR][dQ][dR][dR][dK][dK][dR]G[dY]-NH2; N-terminus assumed; SMILES CC[C@@H](C)[C@@H](NC(=O)[C@@H](CCC(=O)O)NC(=O)[C@@H](CO)NC(=O)[C@@H](CC(=O)O)NC(=O)[C@H](N)C(C)C)C(=O)N[C@H](CO)C(=O)N[C@H](CO)C(=O)N[C@H](CC(C)C)C(=O)N[C@H](CCCCN)C(=O)N[C@H](CCCNC(=N)N)C(=O)N[C@H](CCCNC(=N)N)C(=O)N[C@H](CCCNC(=N)N)C(=O)N[C@H](CCC(N)=O)C(=O)N[C@H](CCCNC(=N)N)C(=O)N[C@H](CCCNC(=N)N)C(=O)N[C@H](CCCCN)C(=O)N[C@H](CCCCN)C(=O)N[C@H](CCCNC(=N)N)C(=O)NCC(=O)N[C@H](Cc1ccc(O)cc1)C(N)=O) [D-TAT-D-NR2B9c, inventive fusion peptide of D-TAT transporter and D-NR2B9c]", "values": [{"measurement": "efficacy (lowered cell death rate %) versus comparative compound L-TAT-L-NR2B9c", "setting": "[1]; 20 μM NMDA, FIG. 1", "value": "at least equal, but predominantly significantly increased efficacy"}, {"measurement": "gap between peptide incubation and NMDA addition at which the positive effect shows", "setting": "[1]; 20 μM NMDA, FIG. 1", "value": "≥ 8", "unit": "h"}, {"measurement": "efficacy (lowered cell death rate %) versus comparative compound L-TAT-L-NR2B9c", "setting": "[1]; 40 μM NMDA, FIG. 2", "value": "at least equal, but predominantly significantly increased efficacy"}, {"measurement": "time window in which the remarkable positive effect becomes apparent", "setting": "[1]; 40 μM NMDA, FIG. 2", "value": "less than 24 h"}, {"measurement": "significant protection (duration after washout)", "setting": "[1]; 40 μM NMDA, FIG. 2", "value": "up to 24 hours"}]}, {"substance": "vdseisslk-rrrrrrrr ([dV][dD][dS][dE][dI][dS][dS][dL][dK][dR][dR][dR][dR][dR][dR][dR][dR]) [D-(Arg)8-D-NR2B9c, inventive fusion peptide of D-(Arg)8 transporter and D-NR2B9c]", "values": [{"measurement": "efficacy (lowered cell death rate %) versus comparative compound L-(Arg)8-L-NR2B9c", "setting": "[2]; 20 μM NMDA, FIG. 3", "value": "at least equal, but predominantly significantly increased efficacy"}, {"measurement": "superior neuroprotection after washout of the peptide (duration)", "setting": "[2]; 20 μM NMDA, peptide 10 μM for 1 hr, then washout, FIG. 3", "value": "up to 8 hours"}, {"measurement": "efficacy (lowered cell death rate %) versus comparative compound L-(Arg)8-L-NR2B9c", "setting": "[2]; 40 μM NMDA, up to the 8 hr time point, FIG. 4", "value": "at least equal, but predominantly significant increased efficacies; also recorded: equal to better protective effects"}, {"measurement": "performance compared with D-TAT-D-NR2B9c", "setting": "[2]; overall, 20 and 40 μM NMDA", "value": "performs similar to D-TAT-D-NR2B9c (SEQ ID NO: 33)), albeit with a shorter duration of neuroprotective activity"}]}]}
